Where two headings read alike, the source gives them in different places.
Molecular target: T1, CFTR (Homo sapiens, UniProt P13569)
T1 construct: endogenous in cells; host or cells: T84 human colonic cells (ECACC)
Assay: T84 assay (FLIPR membrane potential dye, forskolin/IBMX-stimulated CFTR channel activity)
Assay type: cell-based
Summary of the method: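 Fluorescence from a membrane potential dye in T84 monolayers (HBSS with 10 mM Hepes) is followed each second for 150 s. Cells are exposed to test compound during the 45 min dye loading, then challenged with forskolin (10 μM) and IBMX (100 μM) to open CFTR. Inhibitors suppress the depolarization-driven fluorescence increase.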

[1] = oxadiazole-containing compounds (a series), average of at least 2 runs unless annotated n = 1, read-out: IC50

T1 sequence (P13569 whole entry): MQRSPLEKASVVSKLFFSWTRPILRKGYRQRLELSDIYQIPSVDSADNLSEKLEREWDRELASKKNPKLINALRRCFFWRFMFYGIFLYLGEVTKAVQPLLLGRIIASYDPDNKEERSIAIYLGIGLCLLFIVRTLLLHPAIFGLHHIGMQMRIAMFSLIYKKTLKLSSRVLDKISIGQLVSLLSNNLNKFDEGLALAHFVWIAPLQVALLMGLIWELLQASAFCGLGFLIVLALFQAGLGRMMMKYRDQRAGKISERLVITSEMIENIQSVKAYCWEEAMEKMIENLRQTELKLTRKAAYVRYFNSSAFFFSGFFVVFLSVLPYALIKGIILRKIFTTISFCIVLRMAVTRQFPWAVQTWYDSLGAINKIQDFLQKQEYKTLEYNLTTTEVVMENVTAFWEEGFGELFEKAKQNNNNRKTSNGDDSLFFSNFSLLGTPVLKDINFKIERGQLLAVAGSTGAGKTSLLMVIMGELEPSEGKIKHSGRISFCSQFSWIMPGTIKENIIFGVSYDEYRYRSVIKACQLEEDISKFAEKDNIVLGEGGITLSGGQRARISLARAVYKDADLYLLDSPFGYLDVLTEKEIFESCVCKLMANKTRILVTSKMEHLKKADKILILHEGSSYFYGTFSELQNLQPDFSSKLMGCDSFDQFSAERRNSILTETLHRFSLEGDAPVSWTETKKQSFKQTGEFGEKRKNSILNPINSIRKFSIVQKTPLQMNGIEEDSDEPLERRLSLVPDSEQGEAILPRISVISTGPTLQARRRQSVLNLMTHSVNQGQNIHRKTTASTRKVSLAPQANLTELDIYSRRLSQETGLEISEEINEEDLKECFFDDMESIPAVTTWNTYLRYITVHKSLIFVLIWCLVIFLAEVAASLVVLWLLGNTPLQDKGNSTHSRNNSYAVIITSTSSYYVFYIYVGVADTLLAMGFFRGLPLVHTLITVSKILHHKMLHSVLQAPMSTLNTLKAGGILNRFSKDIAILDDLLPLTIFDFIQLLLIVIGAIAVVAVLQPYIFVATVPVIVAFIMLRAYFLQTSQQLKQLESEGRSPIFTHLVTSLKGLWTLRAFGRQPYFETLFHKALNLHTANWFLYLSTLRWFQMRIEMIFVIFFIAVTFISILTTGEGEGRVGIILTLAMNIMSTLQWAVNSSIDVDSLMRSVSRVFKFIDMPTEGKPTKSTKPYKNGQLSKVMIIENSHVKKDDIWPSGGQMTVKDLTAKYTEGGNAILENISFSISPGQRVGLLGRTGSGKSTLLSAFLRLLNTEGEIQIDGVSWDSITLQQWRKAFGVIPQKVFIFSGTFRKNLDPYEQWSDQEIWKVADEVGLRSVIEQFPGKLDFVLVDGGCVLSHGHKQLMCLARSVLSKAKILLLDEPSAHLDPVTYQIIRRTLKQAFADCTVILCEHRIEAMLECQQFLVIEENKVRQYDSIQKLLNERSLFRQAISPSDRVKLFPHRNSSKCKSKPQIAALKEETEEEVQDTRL

| IC50 [1] | IC50 (imidazole and triazole-containing compounds (Tables 13, 14, 14′), read-out: IC50 (μM) (T84 assay)) | Compound |
| --- | --- | --- |
| 23.4 µM | – | O=C(NCc1cc(C(F)(F)F)ccc1F)c1nc(-c2cc(Cl)c(O)c(Cl)c2)no1 [126a, 3-(3,5-dichloro-4-hydroxyphenyl)-N-(2-fluoro-5-(trifluoromethyl)benzyl)-1,2,4-oxadiazole-5-carboxamide] |
| – | 2.19 µM | CON(Cc1ccc(C(C)C)cc1)C(=O)c1ncn(-c2cc(Cl)c(O)c(Cl)c2)n1 [128i, 1-(3,5-dichloro-4-hydroxyphenyl)-N-(4-isopropylbenzyl)-N-methoxy-1H-1,2,4-triazole-3-carboxamide] |
| 16.7 µM | – | O=C(NCc1ccccc1C(F)(F)F)c1nc(-c2cc(Cl)c(O)c(Cl)c2)no1 [129a, 3-(3,5-dichloro-4-hydroxyphenyl)-N-(2-(trifluoromethyl)benzyl)-1,2,4-oxadiazole-5-carboxamide] |
| 6.83 µM | – | O=C(NCc1ccc(-c2ccccc2)cc1)c1nc(-c2cc(Cl)c(O)c(Cl)c2)no1 [131a, N-(biphenyl-4-ylmethyl)-3-(3,5-dichloro-4-hydroxyphenyl)-1,2,4-oxadiazole-5-carboxamide] |
| 16.1 µM | – | O=C(NCc1ccc(F)cc1F)c1nc(-c2cc(Cl)c(O)c(Cl)c2)no1 [132a, 3-(3,5-dichloro-4-hydroxyphenyl)-N-(2,4-difluorobenzyl)-1,2,4-oxadiazole-5-carboxamide] |
| 17.9 µM | – | CN(C)c1ccc(CNC(=O)c2nc(-c3cc(Cl)c(O)c(Cl)c3)no2)cc1 [133a, 3-(3,5-dichloro-4-hydroxyphenyl)-N-(4-(dimethylamino)benzyl)-1,2,4-oxadiazole-5-carboxamide] |
| 2.95 µM | – | CC(C)(C)c1ccc(CNC(=O)c2nc(-c3cc(Cl)c(O)c(Cl)c3)no2)cc1 [136a, N-(4-tert-butylbenzyl)-3-(3,5-dichloro-4-hydroxyphenyl)-1,2,4-oxadiazole-5-carboxamide] |
| 24.4 µM | – | O=C(NCc1cc(F)cc(F)c1)c1nc(-c2cc(Cl)c(O)c(Cl)c2)no1 [137a, 3-(3,5-dichloro-4-hydroxyphenyl)-N-(3,5-difluorobenzyl)-1,2,4-oxadiazole-5-carboxamide] |
| 5.1 µM | – | CN(Cc1cccc(C(F)(F)F)c1)C(=O)c1nc(-c2cc(Cl)c(O)c(Cl)c2)no1 [139a, 3-(3,5-dichloro-4-hydroxyphenyl)-N-methyl-N-(3-(trifluoromethyl)benzyl)-1,2,4-oxadiazole-5-carboxamide] |
| 10.2 µM | – | CN(Cc1ccc(Oc2ccccc2)cc1)C(=O)c1nc(-c2cc(Cl)c(O)c(Cl)c2)no1 [142a, 3-(3,5-dichloro-4-hydroxyphenyl)-N-methyl-N-(4-phenoxybenzyl)-1,2,4-oxadiazole-5-carboxamide] |
| 5.15 µM | – | CC(NC(=O)c1nc(-c2cc(Cl)c(O)c(Cl)c2)no1)c1ccc(Br)cc1 (centres unmarked) [143a, N-(1-(4-bromophenyl)ethyl)-3-(3,5-dichloro-4-hydroxyphenyl)-1,2,4-oxadiazole-5-carboxamide] |
| 11.2 µM | – | O=C(NCc1ccc(F)c(C(F)(F)F)c1)c1nc(-c2cc(Cl)c(O)c(Cl)c2)no1 [146a, 3-(3,5-dichloro-4-hydroxyphenyl)-N-(4-fluoro-3-(trifluoromethyl)benzyl)-1,2,4-oxadiazole-5-carboxamide] |
| 29.9 µM | – | O=C(NCc1cccc(-c2ncccn2)c1)c1nc(-c2cc(Cl)c(O)c(Cl)c2)no1 [147a, 3-(3,5-dichloro-4-hydroxyphenyl)-N-(3-(pyrimidin-2-yl)benzyl)-1,2,4-oxadiazole-5-carboxamide] |
| 8.26 µM | – | CN(Cc1ccc(C(C)(C)C)cc1)C(=O)c1nc(-c2cc(Cl)c(O)c(Cl)c2)no1 [148a, N-(4-tert-butylbenzyl)-3-(3,5-dichloro-4-hydroxyphenyl)-N-methyl-1,2,4-oxadiazole-5-carboxamide] |
| 6.7 µM | – | CC(NC(=O)c1nc(-c2cc(Cl)c(O)c(Cl)c2)no1)c1ccc(Cl)cc1 (centres unmarked) [149a, N-(1-(4-chlorophenyl)ethyl)-3-(3,5-dichloro-4-hydroxyphenyl)-1,2,4-oxadiazole-5-carboxamide] |
| 6.24 µM | – | CC(C)(C)C(=O)CN(Cc1ccccc1)C(=O)c1nc(-c2cc(Cl)c(O)c(Cl)c2)no1 [151a, N-benzyl-3-(3,5-dichloro-4-hydroxyphenyl)-N-(3,3-dimethyl-2-oxobutyl)-1,2,4-oxadiazole-5-carboxamide] |
| 8.88 µM | – | CC(C)(C)C(=O)CN(Cc1ccc(F)c(F)c1)C(=O)c1nc(-c2cc(Cl)c(O)c(Cl)c2)no1 [152a, 3-(3,5-dichloro-4-hydroxyphenyl)-N-(3,4-difluorobenzyl)-N-(3,3-dimethyl-2-oxobutyl)-1,2,4-oxadiazole-5-carboxamide] |
| 3.89 µM | – | O=C(NCc1cc(F)cc(C(F)(F)F)c1)c1nc(-c2cc(Cl)c(O)c(Cl)c2)no1 [154a, 3-(3,5-dichloro-4-hydroxyphenyl)-N-(3-fluoro-5-(trifluoromethyl)benzyl)-1,2,4-oxadiazole-5-carboxamide] |
| 20.9 µM | – | O=C(NCc1ccc(Cn2cccn2)cc1)c1noc(-c2cc(Cl)c(O)c(Cl)c2)n1 [156a, N-(4-((1H-pyrazol-1-yl)methyl)benzyl)-5-(3,5-dichloro-4-hydroxyphenyl)-1,2,4-oxadiazole-3-carboxamide] |
| 17.5 µM | – | CN(C)c1ccc(CNC(=O)c2noc(-c3cc(Cl)c(O)c(Cl)c3)n2)cc1 [158a, 5-(3,5-dichloro-4-hydroxyphenyl)-N-(4-(dimethylamino)benzyl)-1,2,4-oxadiazole-3-carboxamide] |
| 7.26 µM | – | CN(C)c1cccc(CNC(=O)c2noc(-c3cc(Cl)c(O)c(Cl)c3)n2)c1 [160a, 5-(3,5-dichloro-4-hydroxyphenyl)-N-(3-(dimethylamino)benzyl)-1,2,4-oxadiazole-3-carboxamide] |
| 9.24 µM | – | O=C(c1nc(-c2cc(Cl)c(O)c(Cl)c2)no1)N(Cc1cccnc1)Cc1cccnc1 [162a, 3-(3,5-dichloro-4-hydroxyphenyl)-N,N-bis(pyridin-3-ylmethyl)-1,2,4-oxadiazole-5-carboxamide] |

The next lines start with the compound.

| Compound | IC50 [1] | IC50 (imidazole and triazole-containing compounds (Tables 13, 14, 14′), read-out: IC50 (μM) (T84 assay)) |
| --- | --- | --- |
| CC(C)Oc1ccc(CNC(=O)c2nc(-c3cc(Cl)c(O)c(Cl)c3)no2)cc1 [127a, 3-(3,5-dichloro-4-hydroxyphenyl)-N-(4-isopropoxybenzyl)-1,2,4-oxadiazole-5-carboxamide] | 9.95 µM | – |
| O=C(NCc1ccc(Cl)cc1)c1nc(-c2cc(Cl)c(O)c(Cl)c2)no1 [128a, N-(4-chlorobenzyl)-3-(3,5-dichloro-4-hydroxyphenyl)-1,2,4-oxadiazole-5-carboxamide] | 12.8 µM | – |
| O=C(NCc1ccc(F)c(Cl)c1)c1nc(-c2cc(Cl)c(O)c(Cl)c2)no1 [130a, N-(3-chloro-4-fluorobenzyl)-3-(3,5-dichloro-4-hydroxyphenyl)-1,2,4-oxadiazole-5-carboxamide] | 9.44 µM | – |
| O=C(NCc1cccc(C(F)(F)F)c1)c1nc(-c2cc(Cl)c(O)c(Cl)c2)no1 [134a, 3-(3,5-dichloro-4-hydroxyphenyl)-N-(3-(trifluoromethyl)benzyl)-1,2,4-oxadiazole-5-carboxamide] | 8.65 µM | – |
| O=C(NCc1cccc(OC(F)F)c1)c1nc(-c2cc(Cl)c(O)c(Cl)c2)no1 [135a, 3-(3,5-dichloro-4-hydroxyphenyl)-N-(3-(difluoromethoxy)benzyl)-1,2,4-oxadiazole-5-carboxamide] | 20.4 µM | – |
| CN(Cc1ccc(C(F)(F)F)cc1)C(=O)c1nc(-c2cc(Cl)c(O)c(Cl)c2)no1 [138a, 3-(3,5-dichloro-4-hydroxyphenyl)-N-methyl-N-(4-(trifluoromethyl)benzyl)-1,2,4-oxadiazole-5-carboxamide] | 3.84 µM | – |
| CCN(Cc1ccccc1)C(=O)c1nc(-c2cc(Cl)c(O)c(Cl)c2)no1 [140a, N-benzyl-3-(3,5-dichloro-4-hydroxyphenyl)-N-ethyl-1,2,4-oxadiazole-5-carboxamide] | 19.9 µM | – |
| O=C(NCc1cccc(OCc2ccccc2)c1)c1nc(-c2cc(Cl)c(O)c(Cl)c2)no1 [141a, N-(3-(benzyloxy)benzyl)-3-(3,5-dichloro-4-hydroxyphenyl)-1,2,4-oxadiazole-5-carboxamide] | 7.79 µM | – |
| CN(Cc1cccc(Oc2ccccc2)c1)C(=O)c1nc(-c2cc(Cl)c(O)c(Cl)c2)no1 [144a, 3-(3,5-dichloro-4-hydroxyphenyl)-N-methyl-N-(3-phenoxybenzyl)-1,2,4-oxadiazole-5-carboxamide] | 6.33 µM | – |
| O=C(NCc1cccc(Oc2ccccc2)c1)c1nc(-c2cc(Cl)c(O)c(Cl)c2)no1 [145a, 3-(3,5-dichloro-4-hydroxyphenyl)-N-(3-phenoxybenzyl)-1,2,4-oxadiazole-5-carboxamide] | 9.87 µM | – |
| CCc1ccc(CN(C)C(=O)c2nc(-c3cc(Cl)c(O)c(Cl)c3)no2)cc1 [150a, 3-(3,5-dichloro-4-hydroxyphenyl)-N-(4-ethylbenzyl)-N-methyl-1,2,4-oxadiazole-5-carboxamide] | 6.25 µM | – |
| O=C(NCc1ccc(OCc2ccccc2)cc1)c1nc(-c2cc(Cl)c(O)c(Cl)c2)no1 [153a, N-(4-(benzyloxy)benzyl)-3-(3,5-dichloro-4-hydroxyphenyl)-1,2,4-oxadiazole-5-carboxamide] | 2.99 µM | – |
| O=C(NCc1cc(C(F)(F)F)ccc1F)c1noc(-c2cc(Cl)c(O)c(Cl)c2)n1 [155a, 5-(3,5-dichloro-4-hydroxyphenyl)-N-(2-fluoro-5-(trifluoromethyl)benzyl)-1,2,4-oxadiazole-3-carboxamide] | 2.22 µM | – |
| O=C(NCc1cccc(N2CCCCC2)c1)c1noc(-c2cc(Cl)c(O)c(Cl)c2)n1 [157a, 5-(3,5-dichloro-4-hydroxyphenyl)-N-(3-(piperidin-1-yl)benzyl)-1,2,4-oxadiazole-3-carboxamide] | 3.33 µM | – |
| O=C(NCc1ccc(F)c(C(F)(F)F)c1)c1noc(-c2cc(Cl)c(O)c(Cl)c2)n1 [159a, 5-(3,5-dichloro-4-hydroxyphenyl)-N-(4-fluoro-3-(trifluoromethyl)benzyl)-1,2,4-oxadiazole-3-carboxamide] | 4.83 µM | – |
| O=C(NCc1cccc(-n2cccn2)c1)c1noc(-c2cc(Cl)c(O)c(Cl)c2)n1 [161a, N-(3-(1H-pyrazol-1-yl)benzyl)-5-(3,5-dichloro-4-hydroxyphenyl)-1,2,4-oxadiazole-3-carboxamide] | 6.21 µM | – |
